Measured values from paper PMC7026418, “The kinase polypharmacology landscape of clinical PARP inhibitors” (Scientific Reports, 2020).
Like-named read-outs stand apart in the source and are kept apart here. Each block holds one molecule with its values, some of them ahead of it.

How the values were obtained:
Experiment in all cases: biochemical
Parameters in all cases: DiscoveRx KINOMEscan active site-directed competition binding; percent of control kinase bound to immobilised ligand
[1] = target: T1, CDC2L1 (Homo sapiens, UniProt P21127)
T1 construct: gene CDK11B
T1 sequence (P21127 whole entry): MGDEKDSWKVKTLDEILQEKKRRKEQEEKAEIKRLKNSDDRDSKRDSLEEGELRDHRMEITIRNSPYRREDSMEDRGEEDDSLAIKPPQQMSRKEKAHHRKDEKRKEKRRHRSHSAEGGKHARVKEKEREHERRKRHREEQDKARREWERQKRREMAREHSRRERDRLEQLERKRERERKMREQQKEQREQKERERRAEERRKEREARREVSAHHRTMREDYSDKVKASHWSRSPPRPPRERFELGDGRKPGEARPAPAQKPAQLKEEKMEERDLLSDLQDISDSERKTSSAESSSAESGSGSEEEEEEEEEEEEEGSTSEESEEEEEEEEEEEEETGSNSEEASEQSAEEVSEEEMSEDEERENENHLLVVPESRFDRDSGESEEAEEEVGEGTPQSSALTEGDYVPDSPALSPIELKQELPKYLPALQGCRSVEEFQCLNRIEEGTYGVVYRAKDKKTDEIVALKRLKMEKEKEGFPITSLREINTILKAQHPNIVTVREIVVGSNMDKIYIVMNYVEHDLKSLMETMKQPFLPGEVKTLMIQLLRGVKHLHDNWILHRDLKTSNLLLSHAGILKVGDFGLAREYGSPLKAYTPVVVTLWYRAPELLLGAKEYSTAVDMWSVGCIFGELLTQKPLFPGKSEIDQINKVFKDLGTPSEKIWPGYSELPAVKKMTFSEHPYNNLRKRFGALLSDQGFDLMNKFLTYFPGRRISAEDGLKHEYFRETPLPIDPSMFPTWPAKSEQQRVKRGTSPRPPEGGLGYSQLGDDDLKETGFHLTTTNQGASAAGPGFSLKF

[2] = target: ERBB4 (Homo sapiens, UniProt Q15303)
ERBB4, sequence (Q15303 whole entry): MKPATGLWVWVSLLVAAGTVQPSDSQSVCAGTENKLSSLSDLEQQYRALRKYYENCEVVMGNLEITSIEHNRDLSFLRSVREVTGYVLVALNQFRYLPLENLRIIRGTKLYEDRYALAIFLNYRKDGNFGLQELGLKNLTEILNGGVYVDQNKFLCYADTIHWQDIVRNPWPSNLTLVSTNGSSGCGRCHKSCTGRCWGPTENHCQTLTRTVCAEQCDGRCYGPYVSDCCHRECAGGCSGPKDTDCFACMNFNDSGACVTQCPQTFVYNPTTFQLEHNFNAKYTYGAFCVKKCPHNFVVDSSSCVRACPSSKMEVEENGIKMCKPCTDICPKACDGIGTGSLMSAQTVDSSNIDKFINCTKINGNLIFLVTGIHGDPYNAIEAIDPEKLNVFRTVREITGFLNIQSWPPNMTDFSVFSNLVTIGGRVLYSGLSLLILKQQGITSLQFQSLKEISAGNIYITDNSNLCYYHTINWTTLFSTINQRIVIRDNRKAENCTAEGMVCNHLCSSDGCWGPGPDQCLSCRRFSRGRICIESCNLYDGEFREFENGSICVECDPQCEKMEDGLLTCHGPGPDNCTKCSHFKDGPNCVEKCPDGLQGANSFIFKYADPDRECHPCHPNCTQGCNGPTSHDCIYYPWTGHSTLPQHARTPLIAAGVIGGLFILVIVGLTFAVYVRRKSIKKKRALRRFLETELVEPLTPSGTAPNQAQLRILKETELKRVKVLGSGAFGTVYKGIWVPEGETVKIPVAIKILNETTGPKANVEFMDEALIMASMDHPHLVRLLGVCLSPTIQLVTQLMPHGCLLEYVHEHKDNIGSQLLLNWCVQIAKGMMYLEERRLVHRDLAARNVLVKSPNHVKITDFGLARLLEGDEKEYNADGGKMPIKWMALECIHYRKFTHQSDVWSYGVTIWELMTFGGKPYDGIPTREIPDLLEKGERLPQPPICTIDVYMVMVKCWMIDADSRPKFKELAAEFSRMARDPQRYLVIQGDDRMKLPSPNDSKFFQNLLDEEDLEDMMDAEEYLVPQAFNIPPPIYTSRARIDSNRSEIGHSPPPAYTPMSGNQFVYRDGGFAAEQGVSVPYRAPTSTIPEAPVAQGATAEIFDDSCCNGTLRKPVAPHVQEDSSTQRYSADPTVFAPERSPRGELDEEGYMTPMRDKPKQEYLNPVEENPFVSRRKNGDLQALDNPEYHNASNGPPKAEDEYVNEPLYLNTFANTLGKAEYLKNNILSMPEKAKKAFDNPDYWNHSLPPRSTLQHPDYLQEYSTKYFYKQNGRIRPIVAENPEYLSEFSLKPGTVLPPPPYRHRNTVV

[3] = target: T2, MEK4 (Homo sapiens, UniProt P45985)
T2 construct: gene MAP2K4
T2 sequence (P45985 1-399): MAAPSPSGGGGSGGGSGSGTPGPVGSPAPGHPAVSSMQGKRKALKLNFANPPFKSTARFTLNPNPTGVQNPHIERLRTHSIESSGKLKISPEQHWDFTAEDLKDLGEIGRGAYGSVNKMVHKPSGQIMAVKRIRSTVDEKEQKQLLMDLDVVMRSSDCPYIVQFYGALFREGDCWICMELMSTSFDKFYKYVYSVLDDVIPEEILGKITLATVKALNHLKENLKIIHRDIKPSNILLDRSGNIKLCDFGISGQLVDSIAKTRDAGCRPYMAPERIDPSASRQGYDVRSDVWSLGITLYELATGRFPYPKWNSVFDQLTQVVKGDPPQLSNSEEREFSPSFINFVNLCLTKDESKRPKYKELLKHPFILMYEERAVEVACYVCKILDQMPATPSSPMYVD

[4] = target: T3, DDR2 (Homo sapiens, UniProt Q16832)
T3 sequence (Q16832 1-855): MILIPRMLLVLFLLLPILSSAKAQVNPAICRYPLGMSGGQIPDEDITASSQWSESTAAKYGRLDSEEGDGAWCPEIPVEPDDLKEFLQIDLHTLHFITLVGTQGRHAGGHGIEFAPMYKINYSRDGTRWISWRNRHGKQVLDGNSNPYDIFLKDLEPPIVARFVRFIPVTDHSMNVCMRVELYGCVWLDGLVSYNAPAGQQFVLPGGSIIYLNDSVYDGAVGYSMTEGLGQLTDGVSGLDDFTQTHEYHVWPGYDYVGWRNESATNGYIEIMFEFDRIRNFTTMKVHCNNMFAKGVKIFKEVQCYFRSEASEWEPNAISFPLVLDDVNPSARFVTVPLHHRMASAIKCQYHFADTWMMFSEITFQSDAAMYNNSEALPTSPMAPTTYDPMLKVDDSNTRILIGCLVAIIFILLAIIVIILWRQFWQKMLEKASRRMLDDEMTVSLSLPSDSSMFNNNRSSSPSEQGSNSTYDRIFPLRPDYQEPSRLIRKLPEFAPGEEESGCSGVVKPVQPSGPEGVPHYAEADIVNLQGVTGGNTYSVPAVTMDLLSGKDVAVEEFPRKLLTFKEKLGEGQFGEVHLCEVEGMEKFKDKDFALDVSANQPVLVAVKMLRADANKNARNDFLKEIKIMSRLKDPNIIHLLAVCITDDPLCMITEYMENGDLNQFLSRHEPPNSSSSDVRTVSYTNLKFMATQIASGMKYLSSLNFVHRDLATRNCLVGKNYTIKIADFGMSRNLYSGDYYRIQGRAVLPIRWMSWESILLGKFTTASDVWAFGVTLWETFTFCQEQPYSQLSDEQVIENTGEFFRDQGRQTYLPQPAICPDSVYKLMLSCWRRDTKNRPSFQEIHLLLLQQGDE

[5] = target: T4, EPHB4 (Homo sapiens, UniProt P54760)
T4 sequence (P54760 1-987): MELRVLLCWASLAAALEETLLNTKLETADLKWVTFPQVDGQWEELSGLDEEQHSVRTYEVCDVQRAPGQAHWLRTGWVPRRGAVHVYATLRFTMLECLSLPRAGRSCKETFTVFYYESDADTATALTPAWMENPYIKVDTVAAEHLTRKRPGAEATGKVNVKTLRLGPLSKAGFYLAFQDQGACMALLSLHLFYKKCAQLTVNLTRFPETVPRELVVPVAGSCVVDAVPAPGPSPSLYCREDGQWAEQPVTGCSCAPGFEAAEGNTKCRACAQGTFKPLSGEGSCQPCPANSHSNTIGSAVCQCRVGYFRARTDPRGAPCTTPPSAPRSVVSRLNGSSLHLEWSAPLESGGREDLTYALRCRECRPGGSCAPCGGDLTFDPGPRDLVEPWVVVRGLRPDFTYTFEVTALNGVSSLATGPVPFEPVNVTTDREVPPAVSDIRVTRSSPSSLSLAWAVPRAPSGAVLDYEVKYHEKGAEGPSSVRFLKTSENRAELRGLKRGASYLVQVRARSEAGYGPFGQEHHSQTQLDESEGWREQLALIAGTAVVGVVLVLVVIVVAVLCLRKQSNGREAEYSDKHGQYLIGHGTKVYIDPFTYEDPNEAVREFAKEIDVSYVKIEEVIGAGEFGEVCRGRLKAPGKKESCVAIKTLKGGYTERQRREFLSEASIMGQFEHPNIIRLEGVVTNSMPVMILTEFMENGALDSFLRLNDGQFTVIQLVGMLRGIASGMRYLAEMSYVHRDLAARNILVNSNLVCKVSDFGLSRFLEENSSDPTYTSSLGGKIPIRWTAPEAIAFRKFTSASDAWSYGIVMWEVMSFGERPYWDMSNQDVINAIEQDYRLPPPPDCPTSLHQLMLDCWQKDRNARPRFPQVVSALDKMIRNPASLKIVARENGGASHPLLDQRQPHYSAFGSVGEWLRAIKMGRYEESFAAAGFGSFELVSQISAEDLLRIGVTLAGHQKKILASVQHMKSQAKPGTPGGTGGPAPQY

[6] = target: T5, PAK7 (Homo sapiens, UniProt Q9P286)
T5 construct: gene PAK5
T5 sequence (Q9P286 whole entry): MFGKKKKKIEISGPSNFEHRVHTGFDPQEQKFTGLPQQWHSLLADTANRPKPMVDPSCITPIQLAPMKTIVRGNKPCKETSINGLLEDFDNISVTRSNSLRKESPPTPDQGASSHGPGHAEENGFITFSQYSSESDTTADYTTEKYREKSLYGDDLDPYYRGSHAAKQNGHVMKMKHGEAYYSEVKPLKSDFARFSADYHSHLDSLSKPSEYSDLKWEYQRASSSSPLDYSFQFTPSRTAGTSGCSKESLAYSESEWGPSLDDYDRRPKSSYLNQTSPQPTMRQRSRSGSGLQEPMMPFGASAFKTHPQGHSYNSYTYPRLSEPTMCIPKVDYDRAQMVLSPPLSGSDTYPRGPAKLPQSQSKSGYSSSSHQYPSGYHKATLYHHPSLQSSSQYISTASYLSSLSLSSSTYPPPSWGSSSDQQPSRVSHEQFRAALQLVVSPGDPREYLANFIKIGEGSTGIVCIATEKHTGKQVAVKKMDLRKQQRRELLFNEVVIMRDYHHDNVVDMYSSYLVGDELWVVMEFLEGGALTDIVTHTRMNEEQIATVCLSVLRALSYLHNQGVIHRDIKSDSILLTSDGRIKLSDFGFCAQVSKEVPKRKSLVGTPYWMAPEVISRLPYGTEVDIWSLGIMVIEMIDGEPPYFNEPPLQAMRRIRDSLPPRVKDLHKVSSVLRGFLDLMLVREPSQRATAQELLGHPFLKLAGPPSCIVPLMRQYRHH

[7] = target: ACVRL1 (Homo sapiens, UniProt P37023)
ACVRL1, sequence (P37023 whole entry): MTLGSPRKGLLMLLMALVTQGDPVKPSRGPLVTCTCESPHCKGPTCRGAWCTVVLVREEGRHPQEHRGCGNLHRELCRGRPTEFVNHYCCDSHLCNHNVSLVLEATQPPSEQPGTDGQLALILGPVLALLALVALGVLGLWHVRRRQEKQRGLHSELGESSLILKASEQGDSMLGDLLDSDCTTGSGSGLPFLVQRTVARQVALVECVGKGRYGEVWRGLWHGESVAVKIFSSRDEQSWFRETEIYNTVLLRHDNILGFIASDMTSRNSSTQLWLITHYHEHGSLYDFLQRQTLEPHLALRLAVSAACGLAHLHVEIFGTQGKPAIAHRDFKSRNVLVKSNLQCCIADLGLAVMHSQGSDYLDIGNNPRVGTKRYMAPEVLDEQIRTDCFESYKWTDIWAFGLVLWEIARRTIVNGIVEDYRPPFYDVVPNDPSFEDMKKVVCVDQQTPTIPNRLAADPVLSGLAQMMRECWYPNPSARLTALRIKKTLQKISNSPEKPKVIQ

[8] = target: TNIK (Homo sapiens, UniProt Q9UKE5)
TNIK, sequence (Q9UKE5 whole entry): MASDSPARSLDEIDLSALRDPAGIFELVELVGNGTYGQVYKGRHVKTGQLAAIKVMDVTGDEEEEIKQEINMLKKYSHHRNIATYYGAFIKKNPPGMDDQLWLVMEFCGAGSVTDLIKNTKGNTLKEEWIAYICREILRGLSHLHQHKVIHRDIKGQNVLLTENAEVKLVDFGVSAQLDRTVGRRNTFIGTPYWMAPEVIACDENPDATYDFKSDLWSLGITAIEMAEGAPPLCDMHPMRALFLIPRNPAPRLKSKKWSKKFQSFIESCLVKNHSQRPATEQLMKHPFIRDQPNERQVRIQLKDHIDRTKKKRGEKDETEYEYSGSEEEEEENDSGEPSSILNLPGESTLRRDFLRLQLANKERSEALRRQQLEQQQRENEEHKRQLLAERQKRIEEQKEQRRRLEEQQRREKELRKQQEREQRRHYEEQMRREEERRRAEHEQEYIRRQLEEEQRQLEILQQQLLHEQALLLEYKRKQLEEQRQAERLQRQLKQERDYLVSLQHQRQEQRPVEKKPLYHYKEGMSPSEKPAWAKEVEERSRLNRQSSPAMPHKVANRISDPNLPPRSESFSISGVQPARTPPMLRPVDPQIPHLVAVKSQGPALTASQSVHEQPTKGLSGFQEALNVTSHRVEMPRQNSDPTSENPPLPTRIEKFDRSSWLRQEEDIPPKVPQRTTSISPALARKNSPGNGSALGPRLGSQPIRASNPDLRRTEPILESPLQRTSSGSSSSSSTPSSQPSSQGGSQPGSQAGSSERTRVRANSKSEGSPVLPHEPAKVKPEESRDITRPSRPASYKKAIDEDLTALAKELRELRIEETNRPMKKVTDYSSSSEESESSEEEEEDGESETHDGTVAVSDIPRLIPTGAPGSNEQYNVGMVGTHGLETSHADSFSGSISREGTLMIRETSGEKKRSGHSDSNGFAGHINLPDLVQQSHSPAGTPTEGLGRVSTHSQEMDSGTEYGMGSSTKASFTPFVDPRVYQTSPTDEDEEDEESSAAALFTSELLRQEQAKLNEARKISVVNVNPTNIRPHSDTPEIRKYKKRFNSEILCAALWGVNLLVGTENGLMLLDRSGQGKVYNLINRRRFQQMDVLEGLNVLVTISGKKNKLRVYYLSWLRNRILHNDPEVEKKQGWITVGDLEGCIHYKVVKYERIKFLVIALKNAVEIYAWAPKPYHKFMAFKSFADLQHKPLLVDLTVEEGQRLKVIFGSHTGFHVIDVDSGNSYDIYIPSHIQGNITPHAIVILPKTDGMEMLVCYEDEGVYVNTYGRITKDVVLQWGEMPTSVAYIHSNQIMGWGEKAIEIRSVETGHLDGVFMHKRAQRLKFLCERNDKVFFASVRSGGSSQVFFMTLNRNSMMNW

[9] = read-out: Olaparib / %Ctrl @ 10000nM
[10] = read-out: Talazoparib (BMN 673) / %Ctrl @ 10000nM
[11] = read-out: Rucaparib / %Ctrl @ 10000nM, binding competition, % of control
[12] = read-out: Niraparib (MK-4827) / %Ctrl @ 10000nM

- percent of control binding at 10 µM [1, 9]: 99%
- percent of control binding at 10 µM [2, 9]: 89%
- percent of control binding at 10 µM [3, 9]: 80%
- percent of control binding at 10 µM [4, 9]: 92%
- percent of control binding at 10 µM [5, 9]: 90%
- percent of control binding at 10 µM [6, 9]: 100%
- percent of control binding at 10 µM [7, 9]: 97%
- percent of control binding at 10 µM [8, 9]: 100%
Compound: O=C(c1cc(Cc2n[nH]c(=O)c3ccccc23)ccc1F)N1CCN(C(=O)C2CC2)CC1 [Olaparib]

- percent of control binding at 10 µM [1, 10]: 100%
- percent of control binding at 10 µM [2, 10]: 91%
- percent of control binding at 10 µM [3, 10]: 99%
- percent of control binding at 10 µM [4, 10]: 100%
- percent of control binding at 10 µM [5, 10]: 100%
- percent of control binding at 10 µM [6, 10]: 100%
- percent of control binding at 10 µM [7, 10]: 84%
- percent of control binding at 10 µM [8, 10]: 98%
Compound: Cn1ncnc1[C@H]1c2n[nH]c(=O)c3cc(F)cc(c23)N[C@@H]1c1ccc(F)cc1 [Talazoparib]

- percent of control binding at 10 µM [1, 11]: 99%
- percent of control binding at 10 µM [2, 11]: 89%
- percent of control binding at 10 µM [3, 11]: 69%
- percent of control binding at 10 µM [4, 11]: 89%
- percent of control binding at 10 µM [5, 11]: 95%
- percent of control binding at 10 µM [6, 11]: 86%
- percent of control binding at 10 µM [7, 11]: 100%
- percent of control binding at 10 µM [8, 11]: 22%
Compound: CNCc1ccc(-c2[nH]c3cc(F)cc4c3c2CCNC4=O)cc1 [Rucaparib]

Compound: NC(=O)c1cccc2cn(-c3ccc([C@@H]4CCCNC4)cc3)nc12 [Niraparib]
- percent of control binding at 10 µM [1, 12]: 100%
- percent of control binding at 10 µM [2, 12]: 99%
- percent of control binding at 10 µM [3, 12]: 82%
- percent of control binding at 10 µM [4, 12]: 90%
- percent of control binding at 10 µM [5, 12]: 91%
- percent of control binding at 10 µM [6, 12]: 86%
- percent of control binding at 10 µM [7, 12]: 98%
- percent of control binding at 10 µM [8, 12]: 86%
